Experiments:
[1] = test system: LNCaP cells; assay: WST-1 cell proliferation assay, LNCaP; type: cell-based, human; conditions: for IC50: WST-1, three days of exposure, mean ± SD, n = 3; for IC50 (Silibinin)/IC50(Derivative) LNCaP: fold potency relative to silibinin
Procedure: (§1) The in vitro antiproliferative activities of six 7-O-substituted and 26 3-O-substituted silybin derivatives were evaluated using the WST-1 cell proliferation assay, according to the procedure as described in the Experimental Section in both androgen-sensitive (LNCaP) and androgen-insensitive (PC-3 and DU145) human prostate cancer cell lines. Silibinin and docetaxel were used as a positive control for comparison in the parallel experiments and the IC50 values calculated from the dose-response curves are summarized in Table 1. […] A three-carbon linker in 11 and 29, as well as a five-carbon linker in 31, 37 and 40, are beneficial to the potency.
(§2) All cell lines were initially purchased from American Type Culture Collection (ATCC^TM) (Manassas, VA, USA). The PC-3 and LNCaP prostate cancer cell lines were routinely cultured in RPIM-1640 medium supplemented with 10% FBS and 1% penicillin/streptomycin. The DU145 prostate cancer cells were routinely cultured in Eagle’s Minimum Essential Medium (EMEM) supplemented with 10% FBS and 1% penicillin/streptomycin. Cultures were maintained in a high humidity environment supplemented with 5% carbon dioxide at a temperature of 37 °C.
(§3) PC-3, DU145, or LNCaP cells were plated in 96-well plates at a density of 3,200 per well in 200 µL of culture medium. The cells were then separately treated with silibinin, or synthesized silibinin derivatives, at five different doses for three days, while equal treatment volumes of DMSO (0.25%) were used as the vehicle control. The cells were cultured in a CO2 incubator at 37 °C for three days. A total of 10 µL of the premixed WST-1 cell proliferation reagent (Clontech) was added to each well. After mixing gently for one min on an orbital shaker, the cells were incubated for an additional 3 h at 37 °C. To ensure a homogeneous distribution of color, it is important to mix gently on an orbital shaker for one min. The absorbance of each well was measured using a microplate reader (Synergy HT, BioTek, Winooski, VT, USA) at a wavelength of 430 nm. […] For calculating the IC50 values, a linear proliferative inhibition was made based on at least five dosages for each compound.

[2] = test system: PC-3 cells; assay: F2N12S and SYTOX AADvanced double staining apoptosis assay; type: cell-based, human
[3] = test system: MCF 10A non-neoplastic human mammary epithelial cell line; assay: WST-1 cell proliferation assay, MCF 10A non-neoplastic cells; type: cell-based; conditions: for IC50: Homo sapiens, MCF-10A, 72 h, WST-1, three days of exposure, mean ± SD, n = 3
Procedure: (§4) Silibinin and five potent derivatives (11, 29, 31, 37, and 40) were selected for further evaluation against the MCF 10A non-neoplastic human mammary epithelial cell line and PWR-1E non-neoplastic human prostate epithelial cells.
as §3

[4] = test system: PWR-1E non-neoplastic human prostate epithelial cells; assay: WST-1 cell proliferation assay, PWR-1E non-neoplastic cells; type: cell-based; conditions: for IC50: Homo sapiens, PWR-1E, 72 h, WST-1, three days of exposure, mean ± SD, n = 3
Procedure: as §4, §3

[5] = test system: DU145 cells; assay: WST-1 cell proliferation assay, DU145; type: cell-based, human; conditions: for IC50: Homo sapiens, DU-145, 72 h, WST-1, three days of exposure, mean ± SD, n = 3; for IC50 (Silibinin)/IC50(Derivative) DU145: fold potency relative to silibinin
Procedure: as §1, §2, §3

[6] = test system: PC-3 cells; assay: WST-1 cell proliferation assay, PC-3; type: cell-based, human; conditions: for IC50: WST-1, three days of exposure, mean ± SD, n = 3; for IC50 (Silibinin)/IC50(Derivative) PC-3: fold potency relative to silibinin
Procedure: as §1, §2, §3

[7] = test system: prostate cancer cell lines (LNCaP, PC-3 and DU145); assay: WST-1 cell proliferation assay, three prostate cancer cell lines together; type: cell-based, human; conditions: range for the five optimal derivatives over PC-3, DU145, LNCaP; for IC50: Homo sapiens
Source text: As part of our ongoing silybin project, this study aims to introduce a basic nitrogen-containing group to 7-OH of 3,5,20-O-trimethyl-2,3-dehydrosilybin or 3-OH of 5,7,20-O-trimethyl-2,3-dehydrosilybin via an appropriate linker for in vitro evaluation as potential anti-prostate cancer agents. The synthetic approaches to 7-O-substituted-3,5,20-O-trimethyl-2,3-dehydrosilybins through a five-step procedure and to 3-O-substituted-5,7,20-O-trimethyl-2,3- dehydrosilybins via a four-step transformation have been developed. Thirty-two nitrogen-containing derivatives of silybin have been achieved through these synthetic methods for the evaluation of their antiproliferative activities towards both androgen-sensitive (LNCaP) and androgen-insensitive prostate cancer cell lines (PC-3 and DU145) using the WST-1 cell proliferation assay. […] All these five optimal derivatives can arrest the PC-3 cell cycle in the G0/G1 phase and promote PC-3 cell apoptosis.
as §3
In summary, six 7-O-aminoalkyl-3,5-20-O-trimethyl-2,3-dehydrosilybins and 26 3-O-aminoalkyl-5,7,20-O-trimethyl-2,3-dehydrosilybins have been successfully synthesized through a five-step and four-step sequence, respectively. The synthetic methods can be used for the general synthesis of 7-O-substituted-3,5,20-O-trimethyl-2,3-dehydrosilybins and 3-O-substituted-5,7,20-O- trimethyl-2,3-dehydrosilybins. The antiproliferative activities of the 32 derivatives against three prostate cancer cell lines have been evaluated using the WST-1 cell proliferation assay. […] All these five optimal derivatives can cause PC-3 cell accumulation in a G0/G1 phase by increasing the cell population in this phase at 16 h. Derivatives 11, 37, and 40 show a stronger ability than derivatives 29 and 31 in activating PC-3 cell apoptosis by inducing appreciable levels of apoptotic cell death at a 5 µM concentration after 16 h of treatment.

[8] = test system: PC-3 cells; assay: Cell cycle analysis by flow cytometry (propidium iodide); type: cell-based, human; conditions: 20 µM, 16 h; controls 55.7% (11), 36.2% (29), 33.1% (31, 37, 40)
Procedure: Silibinin can arrest the rat (H-7 and I-8) and human prostate cancer cell (LNCaP) cycle at the G1 phase, and cause G1 and G2-M PC-3 prostate cancer cell cycle arrest.
PC-3 cells were plated in 24-well plates at a density of 200,000 per well in 400 µL of culture medium. […] […] Both attached and floating cells were collected in a centrifuge tube by centrifugation at an rcf value of 450 g for 5 min. After discarding the supernatant, the collected cells were re-suspended with 500 µL 80% cold ethanol to fix them for 30 min in 4 °C. The fixed cells could be stored at −20 °C for one week. After fixation, the ethanol was removed after centrifuging and the cells were washed with PBS. The cells were then re-suspend with 100 μL of […] ribonuclease and were cultured at 37 °C for 30 min to degrade all RNA. The cells were stained with 200 μL of 50 μg/mLpropidium iodide stock solution for 30 min at […], and then the fluorescence intensity of PI was detected in individual PC-3 cells using an Attune flow cytometer (Life Technologies, Carlsbad, CA, USA) within 0.5 to 1 h after staining.

[9] = 10 µM, 16 h, range over 11, 37, 40
[10] = 20 µM, 16 h, range over 11, 37, 40

SMILES | IC50 ([1]; Homo sapiens, LNCaP, 72 h) [µM] | IC50 [5] [µM] | IC50 ([6]; Homo sapiens, PC-3, 72 h) [µM] | IC50 (Silibinin)/IC50(Derivative) LNCaP [1] | IC50 (Silibinin)/IC50(Derivative) DU145 [5] | IC50 (Silibinin)/IC50(Derivative) PC-3 [6] | further results
CCCCN(CCCC)CCCOc1c(-c2ccc3c(c2)OC(c2ccc(OC)c(OC)c2)C(CO)O3)oc2cc(OC)cc(OC)c2c1=O (stereo not shown) [Compound 29] | ≤ 3 | 2.51 ± 0.04 | ≤ 3 | – | – | – | IC50 [1]: 2.21 ± 0.17 µM; maximum apoptotic cell population ([2]; 50 µM, 16 h): 71%; apoptotic cell death ([2]; up to a 10 µM concentration, 16 h): less than 10%; IC50 [3]: < 5 µM; IC50 [4]: < 5 µM; IC50 [6]: 2.73 ± 0.12 µM; IC50 [7]: 1400 to 3060 nM; fold improvement in potency compared to silibinin [7]: 17- to 52 fold; PC-3 cell population in G0/G1 phase [8]: 50.3%
CCCN(CCC)CCCOc1cc(OC)c2c(=O)c(OC)c(-c3ccc4c(c3)OC(c3ccc(OC)c(OC)c3)C(CO)O4)oc2c1 (stereo not shown) [Compound 11] | ≤ 3 | 1.84 ± 0.14 | – | 24 | 51 | 52 | IC50 [1]: 1.82 ± 0.14 µM; early phase apoptosis in PC-3 cells ([2]; 5 µM, 16 h, range over 11, 37, 40): 26–59%; early apoptotic cells [2, 9]: 56–76%; late apoptotic/necrotic cells [2, 9]: 6–40%; early apoptotic cells [2, 10]: 54–75%; late apoptotic/necrotic cells [2, 10]: 16–44%; concentration at which the apoptotic cell population reached its maximum ([2]; PC-3, 16 h): 5 µM; IC50 [3]: > 50 µM; antiproliferative activity towards MCF 10A ([3]; up to a 50 µM concentration): does not demonstrate apparent antiproliferative activity; IC50 [4]: > 50 µM; antiproliferative activity towards PWR-1E ([4]; up to a 50 µM concentration): does not demonstrate apparent antiproliferative activity; IC50 [7]: 1400 to 3060 nM; fold improvement in potency compared to silibinin [7]: 17- to 52 fold; PC-3 cell population in G0/G1 phase [8]: 66.3%
CCN(CC)CCCOc1cc(OC)c2c(=O)c(OC)c(-c3ccc4c(c3)OC(c3ccc(OC)c(OC)c3)C(CO)O4)oc2c1 (stereo not shown) [Compound 10] | 7.49 ± 0.16 | 8.62 ± 0.32 | 9.92 ± 0.43 | 6 | 11 | 7 | –
CCCCN(CCCC)CCCCOc1c(-c2ccc3c(c2)OC(c2ccc(OC)c(OC)c2)C(CO)O3)oc2cc(OC)cc(OC)c2c1=O (stereo not shown) [Compound 30] | 3.84 ± 0.51 | 3.07 ± 0.51 | 3.77 ± 0.41 | 11 | 30 | 19 | –
COc1cc(OC)c2c(=O)c(OCCCCCN3CCNCC3)c(-c3ccc4c(c3)OC(c3ccc(OC)c(OC)c3)C(CO)O4)oc2c1 (stereo not shown) [Compound 43] | 14.4 ± 7.49 | 48.1 ± 16.3 | 7.87 ± 1.47 | 3 | 2 | 9 | –
COc1cc(OC)c2c(=O)c(OCCCN(C)C)c(-c3ccc4c(c3)OC(c3ccc(OC)c(OC)c3)C(CO)O4)oc2c1 (stereo not shown) [Compound 20, 3-O-(N,N-Dimethylamino)propyl-5,7,20-O-trimethyl-2,3-dehydrosilybin] | 20.7 ± 5.34 | 32.7 ± 5.32 | 9.09 ± 1.48 | 2 | 3 | 8 | –
COc1cc(OC)c2c(=O)c(OCCCCCBr)c(-c3ccc4c(c3)OC(c3ccc(OC)c(OC)c3)C(CO)O4)oc2c1 (stereo not shown) [Compound 19] | 5.19 ± 2.08 | 8.13 ± 0.42 | 5.76 ± 1.36 | 8 | 11 | 13 | –
COc1cc(OC)c2c(=O)c(OCCCN3CCCCC3)c(-c3ccc4c(c3)OC(c3ccc(OC)c(OC)c3)C(CO)O4)oc2c1 (stereo not shown) [Compound 35] | 2.28 ± 0.42 | 7.26 ± 1.12 | 2.37 ± 0.7 | 19 | 13 | 31 | –
CCCN(CCC)CCCOc1c(-c2ccc3c(c2)OC(c2ccc(OC)c(OC)c2)C(CO)O3)oc2cc(OC)cc(OC)c2c1=O (stereo not shown) [Compound 26] | 3.89 ± 0.54 | 8.39 ± 1.38 | 2.03 ± 0.69 | 11 | 11 | 36 | –
COc1cc(OC)c2c(=O)c(OCCCN3CCNCC3)c(-c3ccc4c(c3)OC(c3ccc(OC)c(OC)c3)C(CO)O4)oc2c1 (stereo not shown) [Compound 41] | 11.4 ± 5.91 | > 50 | 9.98 ± 4.94 | 4 | <2 | 7 | –
